Results from ChEMBL document CHEMBL1201862, “PubChem BioAssay data set” (2004).
Each block holds one compound with its values, some of them ahead of it. The source made the active and inactive calls.

Assays:
Insulin-degrading enzyme [1] = target: T1, Insulin-degrading enzyme (Homo sapiens, UniProt P14735); assay: activators of recombinant IDE enzyme, dose response, counter-screen for IDE activator project, biochemical, fluorescence polarization (AID 588681)
T1 sequence (P14735 whole entry): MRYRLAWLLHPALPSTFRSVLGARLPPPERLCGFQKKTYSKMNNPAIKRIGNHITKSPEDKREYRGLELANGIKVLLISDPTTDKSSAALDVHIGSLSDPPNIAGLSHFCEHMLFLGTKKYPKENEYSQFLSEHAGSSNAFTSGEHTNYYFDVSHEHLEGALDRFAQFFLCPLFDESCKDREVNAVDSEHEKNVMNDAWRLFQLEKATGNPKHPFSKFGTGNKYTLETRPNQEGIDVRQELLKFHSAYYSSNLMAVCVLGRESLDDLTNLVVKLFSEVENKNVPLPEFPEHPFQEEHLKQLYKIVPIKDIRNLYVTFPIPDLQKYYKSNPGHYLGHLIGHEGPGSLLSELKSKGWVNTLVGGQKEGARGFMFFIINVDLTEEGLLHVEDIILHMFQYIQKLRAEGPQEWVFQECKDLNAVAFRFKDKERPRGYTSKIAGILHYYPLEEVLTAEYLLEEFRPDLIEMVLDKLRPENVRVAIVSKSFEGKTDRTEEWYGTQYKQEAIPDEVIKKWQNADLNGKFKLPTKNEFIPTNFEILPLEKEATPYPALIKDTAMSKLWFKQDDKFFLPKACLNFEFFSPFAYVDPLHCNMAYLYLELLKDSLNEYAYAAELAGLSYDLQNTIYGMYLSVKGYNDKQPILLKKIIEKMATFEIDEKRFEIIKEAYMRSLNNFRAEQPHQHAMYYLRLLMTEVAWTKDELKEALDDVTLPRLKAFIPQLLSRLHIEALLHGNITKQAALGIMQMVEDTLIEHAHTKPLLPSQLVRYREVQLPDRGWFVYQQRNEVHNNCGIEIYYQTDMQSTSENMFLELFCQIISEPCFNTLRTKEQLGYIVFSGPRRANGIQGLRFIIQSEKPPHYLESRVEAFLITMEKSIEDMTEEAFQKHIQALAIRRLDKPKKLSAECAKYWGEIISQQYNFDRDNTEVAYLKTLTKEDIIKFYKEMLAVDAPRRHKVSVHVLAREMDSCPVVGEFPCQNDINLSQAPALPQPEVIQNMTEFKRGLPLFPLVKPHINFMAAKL

Insulin-degrading enzyme [2] = target: T1, Insulin-degrading enzyme; assay: activators of endogenous IDE in HEK cells, dose response, cell-based, fluorescence polarization (AID 588439); format: functional
HEK293 [3] = assay: HEK cell cytotoxicity by LDH release, dose response, cytotoxicity control for IDE activator project, fluorescence, HEK cells (AID 588440); format: functional, cell-based; conditions: Homo sapiens;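 further: cytotoxicity by LDH release measuring loss of membrane integrity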
HEK293 [4] = assay: optical interference in Abeta FP readout, dose response, artefact control for IDE activator project, biochemical, fluorescence polarization (AID 588442); format: functional, cell-based; conditions: Homo sapiens
HEK293 [5] = assay: inhibitors of LMP1-driven NF-kB reporter, dose response, cell-based, HEK293, luciferase, cherry-pick (AID 588343); format: functional; conditions: Homo sapiens
[6] = target: Latent membrane protein 1 (Human herpesvirus 4 (strain B95-8), UniProt P03230); assay: TES1-eGFP NF-kB reporter inhibition versus Tet-On dsRED, dose response, selectivity assay for LMP1 NF-kB inhibitor project, imaging, HEK293T, dual-color eGFP/dsRED, cherry-picks (AID 588398); format: functional, cell-based
Sequence of Latent membrane protein 1 (P03230 whole entry): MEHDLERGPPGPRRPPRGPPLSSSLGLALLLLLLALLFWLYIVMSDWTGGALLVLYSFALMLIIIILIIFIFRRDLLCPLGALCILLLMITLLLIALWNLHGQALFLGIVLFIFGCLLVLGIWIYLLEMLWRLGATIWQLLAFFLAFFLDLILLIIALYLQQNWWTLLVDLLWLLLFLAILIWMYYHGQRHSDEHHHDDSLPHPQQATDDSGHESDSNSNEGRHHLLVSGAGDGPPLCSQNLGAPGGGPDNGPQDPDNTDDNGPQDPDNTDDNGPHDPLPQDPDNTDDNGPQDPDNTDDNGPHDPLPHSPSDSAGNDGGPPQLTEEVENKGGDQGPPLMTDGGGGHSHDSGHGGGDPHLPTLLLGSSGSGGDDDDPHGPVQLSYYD

INS1 = assay: beta cell apoptosis inhibitors, cytokine rescue, dose response, luminescence, retest (AID 449756); format: functional, cell-based; conditions: Rattus norvegicus;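 further: cell death triggered by IL-1 beta plus TNF-alpha plus IFN-gamma mixture; protective hits raise ATP signal compared with cytokine alone wells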
[7] = Shn3 3'UTR reporter inhibitors, dose response, cell-based, Clone20 osteoblasts, firefly luciferase, cherry-picked (AID 624132); format: functional;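 further: firefly luciferase luminescence from reporter carrying the Shn3 3'UTR in osteoblasts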
[8] = HepG2 cell cytotoxicity, dose response, cytotoxicity control for Shn3 inhibitor project, CellTiter-Glo, cherry-picked (AID 624134); format: functional, cell-based
[9] = control 3'UTR Renilla luciferase suppression, dose response, counter-screen for Shn3 inhibitor project, cell-based, Clone20-Shn3RL, cherry-picked (AID 624133); format: functional
[10] = target: 26S proteasome non-ATPase regulatory subunit 14 (Homo sapiens, UniProt O00487); assay: inhibition of proteasome subunit RPN11 – biochemical, fluorescence polarization, uHTS hits, confirmation (AID 602368); format: functional
Sequence of 26S proteasome non-ATPase regulatory subunit 14 (O00487 whole entry): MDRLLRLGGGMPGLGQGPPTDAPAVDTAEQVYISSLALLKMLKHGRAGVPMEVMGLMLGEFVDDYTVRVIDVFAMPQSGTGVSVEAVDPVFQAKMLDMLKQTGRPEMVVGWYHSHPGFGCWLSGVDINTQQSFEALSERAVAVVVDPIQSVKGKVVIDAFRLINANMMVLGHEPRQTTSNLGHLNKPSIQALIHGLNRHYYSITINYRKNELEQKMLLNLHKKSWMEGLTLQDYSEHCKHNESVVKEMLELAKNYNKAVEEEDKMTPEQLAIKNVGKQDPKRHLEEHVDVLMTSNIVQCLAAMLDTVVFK

[11] = target: 72 kDa type IV collagenase (Homo sapiens, UniProt P08253); assay: Dose Response validation of uHTS RPN11 inhibitor hits using a MMP-2 Fluorescence assay.; format: functional
Sequence of 72 kDa type IV collagenase (P08253 whole entry): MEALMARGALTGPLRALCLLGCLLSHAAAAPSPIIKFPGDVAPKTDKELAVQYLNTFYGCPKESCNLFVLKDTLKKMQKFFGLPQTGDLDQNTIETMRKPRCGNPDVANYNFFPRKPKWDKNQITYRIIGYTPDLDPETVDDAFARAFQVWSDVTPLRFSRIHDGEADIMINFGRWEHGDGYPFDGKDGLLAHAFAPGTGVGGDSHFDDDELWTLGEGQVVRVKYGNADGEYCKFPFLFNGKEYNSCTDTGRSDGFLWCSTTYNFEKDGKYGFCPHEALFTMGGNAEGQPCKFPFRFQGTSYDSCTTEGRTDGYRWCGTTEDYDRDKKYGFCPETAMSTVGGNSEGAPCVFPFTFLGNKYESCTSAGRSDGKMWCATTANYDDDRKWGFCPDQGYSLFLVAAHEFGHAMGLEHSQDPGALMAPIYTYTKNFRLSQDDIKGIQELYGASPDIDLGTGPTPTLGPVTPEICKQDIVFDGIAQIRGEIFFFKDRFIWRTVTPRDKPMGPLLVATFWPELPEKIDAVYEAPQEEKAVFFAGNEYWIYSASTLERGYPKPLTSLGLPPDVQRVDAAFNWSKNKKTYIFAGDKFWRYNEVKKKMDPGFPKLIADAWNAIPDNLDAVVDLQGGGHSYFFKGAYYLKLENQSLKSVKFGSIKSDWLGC

Prothrombin = Prothrombin (Bos taurus, UniProt P00735); assay: thrombin inhibition, dose response, biochemical, fluorescence polarization, uHTS hits (AID 602369); format: functional
[12] = target: Induced myeloid leukemia cell differentiation protein Mcl-1 (Homo sapiens, UniProt Q07820); format: functional
Sequence of Induced myeloid leukemia cell differentiation protein Mcl-1 (Q07820 whole entry): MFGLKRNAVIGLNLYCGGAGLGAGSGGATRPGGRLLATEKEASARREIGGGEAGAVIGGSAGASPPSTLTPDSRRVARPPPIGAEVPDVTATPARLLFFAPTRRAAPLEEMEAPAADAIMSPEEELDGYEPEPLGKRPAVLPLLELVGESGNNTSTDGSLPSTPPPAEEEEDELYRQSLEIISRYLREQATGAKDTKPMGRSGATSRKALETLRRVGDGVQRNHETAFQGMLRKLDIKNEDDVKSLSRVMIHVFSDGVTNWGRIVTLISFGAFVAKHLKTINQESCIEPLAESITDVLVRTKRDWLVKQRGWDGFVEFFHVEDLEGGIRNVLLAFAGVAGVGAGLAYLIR

Structure (SMILES): Cc1cc(Oc2ccc(C#N)cc2)nc(N2CCOCC2)n1
EC50 (Insulin-degrading enzyme [1]): > 54.7 µM (inactive) | EC50 (Insulin-degrading enzyme [2]): > 54.7 µM (inactive) | IC50 (HEK293 [3]): > 89.2 µM (inactive) | EC50 (HEK293 [4]): > 54.7 µM (inactive)

Structure (SMILES): CC(=O)NC(c1cccs1)c1cc(F)c2cccnc2c1O (configuration not stated)
AC50 (HEK293 [5]): 7.74 µM (active) | AC50 [6]: 13 µM (active) | AC50 (INS1): 1.58 µM (active) | AC50 [7]: 1.67 µM (active) | AC50 [8]: 2.94 µM (active) | AC50 [9]: 5.16 µM (active)

IC50 [10]: 48.3 µM (active) | IC50 [11]: > 100 µM (inactive) | IC50 (Prothrombin): 45.6 µM (active)
Structure (SMILES): O=C(/C=C/c1cccs1)Nc1cccc(NC(=O)/C=C/c2cccs2)n1

IC50 [12]: 1.53 µM (not active) | IC50 [10]: 18.8 µM (active) | IC50 [11]: 20 µM (active) | IC50 (Prothrombin): 40.2 µM (active)
Structure (SMILES): COc1ccc(/C=C2\C(=O)NC(=S)N2C(=O)c2ccc(C)cc2)cc1
